A short description of series [1]: Cytotoxicity against mouse BV2 cells assessed as reduction of cell viability at IC50 after 24 hrs by MTT assay. Type of series: cell-based. As to conditions: bv-2, 24 h. Background: Formazan colour is commonly taken as a measure of viable cells.
The test system of another series is BV-2. Kind of series: Anti-neuroinflammatory activity against mouse BV2 cells assessed as inhibition of LPS-induced nitric oxide production after 24 hrs by Griess assay. It counts as functional, cell-based. As to conditions: BV-2, 24 h. (Griess reagent forms a coloured azo dye with nitrite.)

SMILES strings stand for the structures. pIC50: −log10 of the molar value.

The term pIC50 denotes the negative decadic logarithm of the IC50, by convention in mol/L. Regarding `COc1cc(OC)c(Cl)c(-c2cc(=O)c3ccc4occc4c3o2)c1Cl`, the Activity entry in series [1] is “Non-toxic”. The pIC50 in the series on BV-2 is less than 4.00.

As for `COc1cc2occc2c2oc(-c3ccccc3)cc(=O)c12`, the Activity entry in series [1] is reported as “Non-toxic”. Also, the negative logarithm of the IC50 (pIC50) in the series on BV-2 was 5.22.

For `COc1cccc(-c2cc(=O)c3ccc4occc4c3o2)c1`, in series [1], the Activity entry was “Non-toxic”. In addition, in the series on BV-2, the pIC50 was less than 4.00.

Consider `COc1cc(OC)cc(-c2cc(=O)c3ccc4occc4c3o2)c1`, for which the Activity entry in series [1] is on record as “Non-toxic”. In the series with BV-2, the pIC50 was less than 4.00.

On to `COc1ccc(OC)c(-c2cc(=O)c3ccc4occc4c3o2)c1`, for which, in series [1], the Activity result is on record as “Non-toxic”. Also, in the series with BV-2, the pIC50 was 4.06.

In the case of `COc1cc(O)cc(-c2oc3c(ccc4occc43)c(=O)c2OC)c1`, the Activity entry in series [1] is reported as “Non-toxic”. The pIC50 with BV-2 is less than 4.00.

`COc1c2ccoc2cc2oc(-c3ccc4c(c3)OCO4)cc(=O)c12`: the Activity result in series [1] was “Non-toxic”. In addition, the pIC50 with BV-2 is less than 4.00.

In the case of `COc1ccc2c(=O)c(OC)c(-c3cc(OC)c4c(c3)OCO4)oc2c1`, the Activity result in series [1] is on record as “Non-toxic”. In addition, the pIC50 with BV-2 is less than 4.00.

With `COc1ccc(-c2coc3cc(OCC=C(C)C)ccc3c2=O)cc1`, in series [1], the Activity entry was “Non-toxic”. Besides, the pIC50 in the series on BV-2 is less than 4.00.

In the case of `COc1ccc(-c2coc3c(O)c(O)ccc3c2=O)cc1O`, in series [1], the Activity entry is recorded as “Non-toxic”. Also, the negative-log IC50 (pIC50) in the series on BV-2 was less than 4.00.

In the case of `CC1(C)C=Cc2c(ccc(C(=O)/C=C/c3ccc4c(c3)OCO4)c2O)O1`, the Activity result in series [1] is “Non-toxic”. Moreover, the pIC50 in the series with BV-2 was 5.18.

For `CC1(C)C=Cc2c(ccc3c2O[C@H](c2ccc4c(c2)OCO4)CC3=O)O1`, the Activity entry in series [1] is on record as “Non-toxic”. In the series with BV-2, the pIC50 was 4.10.

As to `CC1(C)CC[C@]2(C(=O)O)CC[C@]3(C)[C@H](CC[C@@H]4[C@@]5(C)CC[C@H](O)C(C)(C)[C@@H]5CC[C@]43C)[C@H]2[C@H]1O`, the Activity result in series [1] is reported as “Non-toxic”. Moreover, the pIC50 with BV-2 is 4.64.

On to `CN1CC[C@@H](O)C[C@H]1C(=O)O`, for which the Activity entry in series [1] was “Non-toxic”. Further, the pIC50 with BV-2 is less than 4.00.

On to `COc1ccc(-c2coc3c(OC)c(O)ccc3c2=O)cc1`, for which the Activity entry in series [1] was “Non-toxic”. In addition, the pIC50 in the series on BV-2 was less than 4.00.

For `C=C(C)[C@@H]1CC[C@]2(C(=O)O)CC[C@]3(C)[C@H](CC[C@@H]4[C@@]5(C)CCC(=O)C(C)(C)[C@@H]5CC[C@]43C)[C@@H]12` [BETUNOLIC ACID], in series [1], the Activity entry is on record as “Non-toxic”. For the same molecule, the negative logarithm of the IC50 (pIC50) in the series on BV-2 is less than 4.00.

In the case of `COc1ccc2c(=O)c(OC)c(-c3ccc4c(c3)OCO4)oc2c1` [DEMETHOXYKANUGIN], the Activity result in series [1] is reported as “Non-toxic”. Further, in the series with BV-2, the pIC50 is 4.85.

For `COc1ccc2c(=O)c(OC)c(-c3ccc(OC)c(OC)c3)oc2c1` [FISETIN TETRAMETHYL ETHER], in series [1], the Activity result is listed as “Non-toxic”. Further, the pIC50 in the series on BV-2 is 4.55.

On to `COc1ccc(-c2coc3cc(O)ccc3c2=O)cc1` [FORMONONETIN], for which the Activity entry in series [1] is reported as “Non-toxic”. In addition, the pIC50 in the series on BV-2 was less than 4.00.

For `CC1(C)C=Cc2cc(C(=O)/C=C/c3ccccc3)c(O)cc2O1` [ISOLONCHOCARPIN], the Activity entry in series [1] is listed as “Non-toxic”. The pIC50 with BV-2 is less than 4.00.

Regarding `COc1c(-c2ccccc2)oc2c(ccc3occc32)c1=O` [KARANJIN], the Activity result in series [1] is “Non-toxic”. Moreover, the pIC50 with BV-2 was less than 4.00.

Take `O=c1cc(-c2ccccc2)oc2c1ccc1occc12` [LANCEOLATIN B]: in series [1], the Activity result is reported as “Non-toxic”. In the series on BV-2, the negative-log IC50 (pIC50) is 4.69.

Take `CC1(C)C=Cc2c(ccc(C(=O)/C=C/c3ccccc3)c2O)O1` [LONCHOCARPIN]: in series [1], the Activity result is “Non-toxic”. Moreover, the pIC50 in the series on BV-2 was 5.45.

Regarding `COc1c2ccoc2cc2oc(-c3ccccc3)cc(=O)c12` [PINNATIN], in series [1], the Activity result is reported as “Non-toxic”. In addition, the pIC50 in the series with BV-2 is less than 4.00.

On to `COc1c(-c2ccc3c(c2)OCO3)oc2c3c(ccc2c1=O)OC(C)(C)C=C3` [PONGACHROMENE], for which the Activity result in series [1] was “Non-toxic”. Moreover, in the series on BV-2, the pIC50 is less than 4.00.

Take `O=c1cc(-c2ccc3c(c2)OCO3)oc2c1ccc1occc12` [PONGAGLABRONE]: the Activity entry in series [1] was “Non-toxic”. Besides, the pIC50 with BV-2 is 4.34.

Take `COc1c(-c2ccc3c(c2)OCO3)oc2c(ccc3occc32)c1=O` [PONGAPIN]: the Activity entry in series [1] is “Non-toxic”. Moreover, in the series on BV-2, the pIC50 is less than 4.00.

For the molecule `O=c1c(-c2ccc3c(c2)OCO3)coc2cc(O)ccc12` [PSEUDOBAPTOGENIN], the Activity entry in series [1] was “Non-toxic”. In addition, the pIC50 with BV-2 was less than 4.00.

`COc1ccc(-c2coc3c(O)c(OC)ccc3c2=O)cc1` [RETUSIN 7-METHYL ETHER]: the Activity entry in series [1] is given as “Non-toxic”. Further, the pIC50 in the series with BV-2 was 4.29.

The record behind these values is ChEMBL document CHEMBL3580603, “Natural therapeutic agents for neurodegenerative diseases from a traditional herbal medicine Pongamia pinnata (L.) Pierre” (Bioorg Med Chem Lett, 2014).
